Test results reported in patent publication EP0754455A1, “PHARMACEUTICAL COMPOSITIONS BASED ON AMINOMETHYLINDOLES AND THEIR THERAPEUTICAL APPLICATION AS NEUROPROTECTORS IN PARKINSON AND ALZHEIMER DISEASES” (CONSEJO SUPERIOR INVESTIGACIONES CIENTIFICAS (CSIC), priority 1995, dated 1996).
Read-outs that look alike come from different tables or passages of the source.

Columns and labels:
[1] = biological target: T1, MAO-A (Rattus norvegicus, UniProt P21396); test: biochemical; type: biochemical, Sprague-Dawley rat
T1 construct: human and rat tissue to obtain the isolated forms of monoamine oxidase A and B; from tissue
T1 sequence (P21396 1-526): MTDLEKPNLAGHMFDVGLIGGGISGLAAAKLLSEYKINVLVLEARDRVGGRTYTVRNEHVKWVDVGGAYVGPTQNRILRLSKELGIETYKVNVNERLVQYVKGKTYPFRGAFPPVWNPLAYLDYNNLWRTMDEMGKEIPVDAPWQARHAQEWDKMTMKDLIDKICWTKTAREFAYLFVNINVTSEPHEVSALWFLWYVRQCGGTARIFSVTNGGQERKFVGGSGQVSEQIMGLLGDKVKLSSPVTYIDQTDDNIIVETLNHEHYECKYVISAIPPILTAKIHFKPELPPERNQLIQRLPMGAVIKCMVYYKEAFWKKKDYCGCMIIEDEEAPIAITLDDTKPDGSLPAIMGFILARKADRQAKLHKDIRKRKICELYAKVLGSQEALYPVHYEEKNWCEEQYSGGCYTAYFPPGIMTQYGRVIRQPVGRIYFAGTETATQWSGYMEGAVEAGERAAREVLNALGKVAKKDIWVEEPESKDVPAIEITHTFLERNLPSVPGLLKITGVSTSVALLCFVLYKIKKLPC
Experimental: (§1) The mitochondrial portion of Sprague-Dawley rat was used to determine the MAO-A and MAO-B activity.
(§2) Determinations were made of the comparative MAO-A and MAO-B activity inhibition curves of the various compounds under study at time 0 and 30 min. by measuring the remaining activity to 5-HT and PEA as substrates.

[2] = biological target: T2, MAO-B (Rattus norvegicus, UniProt P19643); test: MAO-B inhibition, mitochondrial portion of rat (IC50, time dependence, irreversibility), substrate PEA; type: biochemical, Sprague-Dawley rat; conditions: for IC50: MAO-B (lines B..), substrate PEA, rat mitochondria
T2 construct: from tissue; host or cells: Sprague-Dawley rat liver, mitochondrial fraction
T2 sequence (P19643 1-520): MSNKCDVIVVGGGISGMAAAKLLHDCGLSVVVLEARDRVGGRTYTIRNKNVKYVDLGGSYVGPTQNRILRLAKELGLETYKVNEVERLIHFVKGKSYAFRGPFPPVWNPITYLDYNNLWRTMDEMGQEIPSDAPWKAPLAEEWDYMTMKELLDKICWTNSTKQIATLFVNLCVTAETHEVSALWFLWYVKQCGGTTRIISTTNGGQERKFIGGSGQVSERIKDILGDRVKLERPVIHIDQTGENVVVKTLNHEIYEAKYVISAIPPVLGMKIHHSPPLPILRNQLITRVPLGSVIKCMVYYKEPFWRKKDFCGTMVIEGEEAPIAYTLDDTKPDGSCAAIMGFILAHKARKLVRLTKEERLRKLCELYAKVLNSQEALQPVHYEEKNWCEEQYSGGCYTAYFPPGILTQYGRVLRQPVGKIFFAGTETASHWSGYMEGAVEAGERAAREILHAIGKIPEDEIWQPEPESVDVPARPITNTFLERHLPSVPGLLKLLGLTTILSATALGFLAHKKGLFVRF
Experimental: as §1, §2

[3] = biological target: T1, MAO-A; test: Kinetic parameters of suicide-type inhibition, MAO-A; type: biochemical, Sprague-Dawley rat
Description: Based on the apparent velocity constants of the first order (kapp) obtained for each inhibitor, calculations were made of the K1 and K^1c at (according to the method described by M. Avila et al. 1993, Biochem Pharmac 45, 2231-2237). K1 is the affinity constant of the first stage of the reaction and K1 MAO-A / K1 MAO-B the expression of the selectivity.
K^1cat is the velocity constant for the formation of the covalent irreversible complex during the second stage of the process. To compare the values of these constants towards the two forms of MAO, we express the inhibition efficacy as the ratio K^1cat/K1. The value of these constants (see Tables 2 and 3), is the result of three different experiments, with their corresponding SEM.

[4] = biological target: T3, dopamine uptake carrier (Rattus norvegicus, UniProt P23977); test: Dopamine re-uptake in purified synaptosomes of rat brain striatal tissue; type: biochemical, Sprague-Dawley rats; conditions: substrate concentration 0.1 µM
T3 construct: purified synaptosomes of brain striatal tissue from Sprague-Dawley rats; from tissue; host or cells: Sprague-Dawley rat brain striatum, purified synaptosomes
Experimental: Kinetic studies of dopamine re-uptake were carried out in purified synaptosomes of brain striatal tissue from Sprague-Dawley rats.

[5] = biological target: T4, MAO-B (Homo sapiens, UniProt P27338); test: MAO-B inhibition in homogenated human cerebral cortex; type: biochemical
T4 construct: performed using homogenated human cerebral cortex obtained from autopsies; from tissue; host or cells: post-mortem human cerebral cortex homogenate
T4 sequence (P27338 1-520): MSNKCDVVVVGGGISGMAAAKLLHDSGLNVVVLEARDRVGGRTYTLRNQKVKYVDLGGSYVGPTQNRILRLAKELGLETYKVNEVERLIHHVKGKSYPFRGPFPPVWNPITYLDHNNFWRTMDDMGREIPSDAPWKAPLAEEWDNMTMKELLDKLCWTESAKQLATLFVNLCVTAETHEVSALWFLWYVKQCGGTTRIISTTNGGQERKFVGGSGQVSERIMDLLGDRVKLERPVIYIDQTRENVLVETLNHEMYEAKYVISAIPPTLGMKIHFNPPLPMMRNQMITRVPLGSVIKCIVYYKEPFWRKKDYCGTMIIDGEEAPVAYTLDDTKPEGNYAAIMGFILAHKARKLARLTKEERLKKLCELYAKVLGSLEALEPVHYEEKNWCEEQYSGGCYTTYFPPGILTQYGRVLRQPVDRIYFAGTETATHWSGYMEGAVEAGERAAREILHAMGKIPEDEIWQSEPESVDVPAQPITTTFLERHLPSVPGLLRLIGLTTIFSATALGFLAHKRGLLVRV
Description: They were provided by Dr. Fco Javier González Oliván (Forensic Anatomic Institute of the Hospital Clínico Provincial in Barcelona).

[6] = biological target: T5, dopamine carrier (Homo sapiens, UniProt Q01959); test: Dopamine carrier inhibition in purified synaptosomes of human caudate; type: biochemical; conditions: human caudate synaptosomes, dopamine (DA) 0.1 µM; read-out: IC50(max)
T5 construct: This assay was carried out in purified synaptosomes of human caudate; from tissue; host or cells: post-mortem human caudate, purified synaptosomes
Experimental: This assay was carried out in purified synaptosomes of human caudate obtained using the same method as described by Rodríguez et al. 1987 Biochem Pharmac 36, 974-976.
The studies were carried out with the same inhibitors used in the rat tissue. The dopamine (DA) concentration was 0.1 µM, a value chosen from the kinetic constants obtained.

[7] = tested on: MPTP neurotoxin; test: Protection against the neurotoxicity of MPTP (striatal DA and DOPAC levels); type: in vivo, mice of the C57/BL species; conditions: striate, FA-73 3 mg/Kg i.p. 2 h before MPTP HCl 30 mg/Kg i.p., MPTP repeated on day 2, 24 h after last MPTP
Experimental: Two hours later they were administered MPTP HCl (30 mg/Kg i.p.) and this dose was repeated on the second day. Twenty four hours after the last injection of MPTP the animals were sacrificed. The brains were dissected and determinations made of the dopamine (DA) and 3,4-dihydroxyphenylacetic acid (DOPAC) levels in the striate.

T5 sequence (Q01959 whole entry): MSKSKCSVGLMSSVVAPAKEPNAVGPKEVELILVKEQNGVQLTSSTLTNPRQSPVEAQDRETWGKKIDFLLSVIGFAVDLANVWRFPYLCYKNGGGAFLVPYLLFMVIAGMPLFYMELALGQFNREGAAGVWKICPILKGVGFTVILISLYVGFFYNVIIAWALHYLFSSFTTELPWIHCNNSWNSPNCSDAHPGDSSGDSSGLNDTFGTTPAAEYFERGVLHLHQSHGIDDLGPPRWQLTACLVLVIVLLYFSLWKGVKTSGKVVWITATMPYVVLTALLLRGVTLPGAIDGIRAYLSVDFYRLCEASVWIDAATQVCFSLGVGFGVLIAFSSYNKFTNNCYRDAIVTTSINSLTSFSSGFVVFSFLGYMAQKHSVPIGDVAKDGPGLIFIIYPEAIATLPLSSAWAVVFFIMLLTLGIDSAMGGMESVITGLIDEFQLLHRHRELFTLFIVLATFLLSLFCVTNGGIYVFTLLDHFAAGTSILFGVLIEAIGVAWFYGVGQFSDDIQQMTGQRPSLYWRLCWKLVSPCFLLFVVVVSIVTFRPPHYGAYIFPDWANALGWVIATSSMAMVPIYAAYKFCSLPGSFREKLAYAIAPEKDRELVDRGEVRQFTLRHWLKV
T3 sequence (P23977 whole entry): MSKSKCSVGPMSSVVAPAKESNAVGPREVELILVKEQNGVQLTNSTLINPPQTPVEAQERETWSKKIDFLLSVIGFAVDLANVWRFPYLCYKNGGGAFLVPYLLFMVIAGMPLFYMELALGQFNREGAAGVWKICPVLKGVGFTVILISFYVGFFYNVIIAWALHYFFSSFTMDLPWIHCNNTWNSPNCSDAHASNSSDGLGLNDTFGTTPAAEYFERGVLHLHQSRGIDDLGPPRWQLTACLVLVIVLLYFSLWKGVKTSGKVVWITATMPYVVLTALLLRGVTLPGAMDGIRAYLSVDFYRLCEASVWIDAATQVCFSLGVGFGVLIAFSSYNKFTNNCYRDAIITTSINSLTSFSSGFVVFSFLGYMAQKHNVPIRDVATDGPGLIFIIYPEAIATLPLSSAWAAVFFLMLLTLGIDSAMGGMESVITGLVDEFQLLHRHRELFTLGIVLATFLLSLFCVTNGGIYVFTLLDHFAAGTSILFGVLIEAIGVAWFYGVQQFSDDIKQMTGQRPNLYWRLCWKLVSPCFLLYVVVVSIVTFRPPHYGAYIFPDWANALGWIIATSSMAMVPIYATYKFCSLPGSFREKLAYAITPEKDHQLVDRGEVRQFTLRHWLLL

`C#CCNCc1cc2cc(OCc3ccccc3)ccc2[nH]1` [FA-73] was tested, and the IC50 [1] was 15800 nM, the “dependence of the inhibition on the incubation time” value ([1]; MAO-A) was “drop in the formation of product as a function of the time of incubation” and the “irreversibility of the inhibition process” value ([1]; MAO-A, inhibitor concentrations close to the IC50) was “irreversibility”. For the same compound, the IC50 ([1]; read-out: IC50 30 min., MAO-A (lines A..), substrate 5-HT, 30 min incubation, rat mitochondria) was 1250 nM, the IC50 ([2]; IC50 0 min, 0 min incubation) was 100 nM and the IC50 ([2]; IC50 30 min., 30 min incubation) was 15 nM. The “dependence of the inhibition on the incubation time” value ([2]; MAO-B) was “drop in the formation of product as a function of the time of incubation”, the “irreversibility of the inhibition process” value ([2]; MAO-B, inhibitor concentrations close to the IC50) was “irreversibility” and the Ki ([3]; MAO-A (A..), affinity constant of the first stage, three experiments ± SEM, read-out: K1) was 800 nM. For the same compound, the “K^1cat / K1(10^-3)” value ([3]; MAO-A, inhibition efficacy) was 0.1 10^-3, the “K^1cat” value ([3]; MAO-A, velocity constant for formation of the covalent irreversible complex, ± SEM) was 0.087 ± 0.006 min⁻¹ and the IC50 [4] was 150000 nM. It also gave an IC50 [5] of 200 nM, an IC50 [6] of 360 nM and a DOPAC ([7]; control 0.98, MPTP alone 0.54) of 0.93 ± 0.023 µg/g dry tissue. For the same compound, the “Dopamine (DA)” value ([7]; control 10.85, MPTP alone 3.13) was 10.48 ± 0.085 µg/g dry tissue.
